Molecular target: T1, human ADRA2B receptor (Homo sapiens, UniProt P18089)
T1 construct: expressed in transfected cells
T1 sequence (P18089 1-450): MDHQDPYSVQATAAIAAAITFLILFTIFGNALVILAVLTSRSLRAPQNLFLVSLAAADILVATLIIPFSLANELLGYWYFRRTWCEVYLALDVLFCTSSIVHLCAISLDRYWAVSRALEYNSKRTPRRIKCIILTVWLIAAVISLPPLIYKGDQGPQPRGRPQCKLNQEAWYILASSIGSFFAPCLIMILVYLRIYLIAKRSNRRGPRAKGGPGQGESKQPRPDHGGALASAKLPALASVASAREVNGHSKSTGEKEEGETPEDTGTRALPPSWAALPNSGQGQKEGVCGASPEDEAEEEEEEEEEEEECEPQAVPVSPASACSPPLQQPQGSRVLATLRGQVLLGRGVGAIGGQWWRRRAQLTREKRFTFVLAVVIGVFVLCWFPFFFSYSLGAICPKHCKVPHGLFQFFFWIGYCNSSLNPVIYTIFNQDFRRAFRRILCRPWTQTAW
Experiment: ADRA2B arrestin agonist assay
Assay type: cell-based
Details: CHO-K1 cells stably expressing human ADRA2B; read-out: Beta-Arrestin - Human Alpha2B EC50
Outline: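 CHO-K1 cells stably expressing human ADRA2B, thawed from frozen stock and plated overnight, were treated with agonist for 2 h at 37 °C. Arrestin recruitment detected by luminescence after 2 h with detection reagents at room temperature.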

Row | EC50 | Structure (SMILES)
1 | < 10 nM | Cc1cccc(C(Cc2ccc3nccn3c2)c2c[nH]cn2)c1C (centres unmarked) [Compound 401, 4-[2-(1,3a-diaza-5-indenyl)-1-(2,3-xylyl)ethyl]imidazole]
2 | < 10 nM | COc1nccc(CC(c2c[nH]cn2)c2cccc(C)c2F)n1 (centres unmarked) [Compound 155, 4-[2-(2-fluoro-3-tolyl)-2-(4-imidazolyl)ethyl]-2-methoxypyrimidine]
3 | > 500 nM | COc1nccc(C[C@H](c2c[nH]cn2)c2cccc(C)c2OC)n1 [Compound 180, 4-[(S)-2-(4-imidazolyl)-2-(2-methoxy-3-tolyl)ethyl]-2-methoxypyrimidine]
4 | > 500 nM | COc1nccc(CC(c2c[nH]cn2)c2ccccc2C(F)(F)F)n1 (centres unmarked) [Compound 354, 4-{2-(4-imidazolyl)-2-[o-(trifluoromethyl)phenyl]eth-yl}-2-methoxypyrimidine]
5 | 50 to 500 nM | COc1c(C)cccc1C(Cc1cc(C)ncn1)c1c[nH]cn1 (centres unmarked) [Compound 276, 4-[2-(4-imidazolyl)-2-(2-methoxy-3-tolyl)ethyl]-6-methylpyrimidine]
6 | < 10 nM | Cc1cccc(C(Cc2ccnc(C(C)C)n2)c2c[nH]cn2)c1C (centres unmarked) [Compound 291, 4-[2-(4-imidazolyl)-2-(2,3-xylyl)ethyl]-2-isopropylpyrimidine]
7 | < 10 nM | Cc1cccc(C(Cc2ccnc(CO)n2)c2c[nH]cn2)c1F (centres unmarked) [Compound 156, {4-[2-(2-fluoro-3-tolyl)-2-(4-imidazolyl)ethyl]-2-pyrimidinyl}methanol]
8 | 10 to 50 nM | Cn1nc2ccccc2c1CC(c1c[nH]cn1)c1cccc2c1OCC2 (centres unmarked) [Compound 308, 3-[2-(2,3-dihydro-1-benzofuran-7-yl)-2-(4-imidazolyl)ethyl]-2-methyl-2H-indazole]
9 | < 10 nM | Cc1cccc(C(Cc2cnc3[nH]ccc3c2)c2c[nH]cn2)c1C (centres unmarked) [Compound 283, 4-[2-(1H-1,7-diazainden-5-yl)-1-(2,3-xylyl)ethyl]imidazole]
10 | 50 to 500 nM | Cc1cccc([C@H](Cc2ccnn2C)c2c[nH]cn2)c1F [Compound 247, 5-[(S)-2-(2-fluoro-3-tolyl)-2-(4-imidazolyl)ethyl]-1-methylpyrazole]
11 | > 500 nM | c1cc2c(c([C@@H](Cc3cocn3)c3c[nH]cn3)c1)OCCO2 [Compound 383, 4-[(R)-2-(2,3-dihydro-1,4-benzodioxin-5-yl)-2-(4-imidazolyl)ethyl] 1,3-oxazole]
12 | 50 to 500 nM | Cc1nnc(CC(c2c[nH]cn2)c2cccc(C)c2C)s1 (centres unmarked) [Compound 263, 2-[2-(4-imidazolyl)-2-(2,3-xylyl)ethyl]-5-methyl-1,3,4-thiadiazole]
13 | 50 to 500 nM | Cn1nccc1CC(c1c[nH]cn1)c1cccc2ccn(C)c12 (centres unmarked) [Compound 267, 5-[2-(4-imidazolyl)-2-(1-methyl-7-indolyl)ethyl]-1-methylpyrazole]
14 | < 10 nM | Cc1nccc(C[C@@H](c2c[nH]cn2)c2cccc(C)c2F)n1 [Compound 141, 4-[(R)-2-(2-fluoro-3-tolyl)-2-(4-imidazolyl)ethyl]-2-methylpyrimidine]
15 | > 500 nM | Cc1cccc(C(Cc2c(C)ccnc2C)c2c[nH]cn2)c1C (centres unmarked) [Compound 386, 4-[2-(2,4-dimethyl-3-pyridyl)-1-(2,3-xylyl)ethyl]imidazole]
16 | < 10 nM | Cc1nc(C[C@@H](c2c[nH]cn2)c2cccc(C)c2C)c(C)o1 [Compound 379, 4-[(R)-2-(4-imidazolyl)-2-(2,3-xylyl)ethyl]-2,5-dimethyl-1,3-oxazole]
17 | > 500 nM | Cc1nccc(C[C@H](c2c[nH]cn2)c2cccc3c2OCCCO3)n1 [Compound 352, 4-[(S)-2-(3,4-dihydro-2H-1,5-benzodioxepin-6-yl)-2-(4-imidazolyl)ethyl]-2-methylpyrimidine]
18 | < 10 nM | Cc1cccc(C(Cc2ccc(C(=O)N(C)C)nc2)c2c[nH]cn2)c1C (centres unmarked) [Compound 311, N,N-dimethyl-5-[2-(4-imidazolyl)-2-(2,3-xylyl)ethyl]-2-pyridinecarboxamide]
19 | < 10 nM | Cc1nccc(CC(c2c[nH]cn2)c2cccc3cccnc23)n1 (centres unmarked) [Compound 341, 4-[2-(4-imidazolyl)-2-(8-quinolyl)ethyl]-2-methylpyrimidine]
20 | < 10 nM | Cc1cc(CC(c2c[nH]cn2)c2cccc(C)c2C)nc(C)n1 (centres unmarked) [Compound 316, 4-[2-(4-imidazolyl)-2-(2,3-xylyl)ethyl]-2,6-dimethylpyrimidine]

Row | EC50 | Structure (SMILES)
21 | 10 to 50 nM | Cn1ncc2c(C(Cc3cccc(CF)n3)c3c[nH]cn3)cccc21 (centres unmarked) [Compound 303, 4-{2-[6-(fluoromethyl)-2-pyridyl]-1-(4-imidazolyl)ethyl}-1-methyl-1H-indazole]
22 | 50 to 500 nM | CCOc1c(F)cccc1C(Cc1ccnc(OC)n1)c1c[nH]cn1 (centres unmarked) [Compound 197, 4-[2-(2-ethoxy-3-fluorophenyl)-2-(4-imidazolyl)ethyl]-2-methoxypyrimidine]
23 | < 10 nM | Cc1cccc(C(Cc2ccnc(C3COC3)n2)c2c[nH]cn2)c1C (centres unmarked) [Compound 210, 4-[2-(4-imidazolyl)-2-(2,3-xylyl)ethyl]-2-(3-oxetanyl)pyrimidine]
24 | < 10 nM | OCc1nccc(CC(c2c[nH]cn2)c2cccc3c2OCC3)n1 (centres unmarked) [Compound 344, {4-[2-(2,3-dihydro-1-benzofuran-7-yl)-2-(4-imidazolyl)ethyl]-2-pyrimidinyl}methanol]
25 | < 10 nM | Cc1cccc(C(Cc2ccnn2C)c2c[nH]cn2)c1Cl (centres unmarked) [Compound 399, 5-[2-(2-chloro-3-tolyl)-2-(4-imidazolyl)ethyl]-1-methylpyrazole]
26 | 10 to 50 nM | CCOc1ccc(CC(c2c[nH]cn2)c2cccc(C)c2C)cn1 (centres unmarked) [Compound 293, 4-[2-(6-ethoxy-3-pyridyl)-1-(2,3-xylyl)ethyl]imidazole]
27 | > 500 nM | c1cc2c(c(C(Cc3cccn4ccnc34)c3c[nH]cn3)c1)OCC2 (centres unmarked) [Compound 400, 4-[2-(1,3a-diaza-7-indenyl)-1-(2,3-dihydro-1-benzofuran-7-yl)ethyl]imidazole]
28 | < 10 nM | CNC(=O)c1ccc(CC(c2c[nH]cn2)c2cccc(C)c2C)cn1 (centres unmarked) [Compound 302, N-methyl-5-[2-(4-imidazolyl)-2-(2,3-xylyl)ethyl]-2-pyridinecarboxamide]
29 | < 10 nM | c1cc2c(c(C(Cc3ccn4ccnc4c3)c3c[nH]cn3)c1)OCC2 (centres unmarked) [Compound 398, 4-[2-(1,3a-diaza-6-indenyl)-1-(2,3-dihydro-1-benzofuran-7-yl)ethyl]imidazole]
30 | 10 to 50 nM | COc1nccc(CC(c2c[nH]cn2)c2cccc(Cl)c2F)n1 (centres unmarked) [Compound 190, 4-[2-(3-chloro-2-fluorophenyl)-2-(4-imidazolyl)ethyl]-2-methoxypyrimidine]
31 | < 10 nM | COC(C)(C)c1nccc(CC(c2c[nH]cn2)c2cccc(C)c2C)n1 (centres unmarked) [Compound 209, 4-[2-(4-imidazolyl)-2-(2,3-xylyl)ethyl]-2-(1-methoxy-1-methylethyl)pyrimidine]
32 | 50 to 500 nM | COc1ncc(CC(c2c[nH]cn2)c2cccc(C)c2C)cn1 (centres unmarked) [Compound 339, 5-[2-(4-imidazolyl)-2-(2,3-xylyl)ethyl]-2-methoxypyrimidine]
33 | > 500 nM | Cc1cc(CC(c2c[nH]cn2)c2cccc(C)c2C)ncn1 (centres unmarked) [Compound 257, 4-[2-(4-imidazolyl)-2-(2,3-xylyl)ethyl]-6-methylpyrimidine]
34 | < 10 nM | Cc1cccc([C@@H](Cc2cccc(CO)n2)c2c[nH]cn2)c1C [Compound 146, {6-[(R)-2-(4-imidazolyl)-2-(2,3-xylyl)ethyl]-2-pyridyl}methanol]
35 | > 500 nM | CCc1cccc(C(Cc2ccn3ccnc3c2)c2c[nH]cn2)c1O (centres unmarked) [Compound 397, 2-[2-(1,3a-diaza-6-indenyl)-1-(4-imidazolyl)ethyl]-6-ethylphenol]
36 | 10 to 50 nM | OCc1nccc(CC(c2c[nH]cn2)c2cccc(Cl)c2F)n1 (centres unmarked) [Compound 191, {4-[2-(3-chloro-2-fluorophenyl)-2-(4-imidazolyl)ethyl]-2-pyrimidinyl}methanol]
37 | < 10 nM | Cc1cc(CC(c2c[nH]cn2)c2cccc(C)c2C)nc(C(C)(C)F)n1 (centres unmarked) [Compound 206, 2-(1-fluoro-1-methylethyl)-4-[2-(4 imidazolyl)-2-(2,3-xylyl)ethyl]-6-methylpyrimidine]
38 | < 10 nM | COCn1ccc(C[C@H](c2c[nH]cn2)c2cccc(C)c2C)n1 [Compound 278, 3-[(S)-2-(4-imidazolyl)-2-(2,3-xylyl)ethyl]-1-(methoxymethyl)pyrazole]
39 | 10 to 50 nM | COc1cc(Cl)cc(CC(c2c[nH]cn2)c2cccc3c2OCC3)n1 (centres unmarked) [Compound 393, 4-[2-(4-chloro-6-methoxy-2-pyridyl)-1-(2,3-dihydro-1-benzofuran-7-yl)ethyl]imidazole]
40 | < 10 nM | COc1ccc(CC(c2c[nH]cn2)c2cccc(C)c2C)cn1 (centres unmarked) [Compound 273, 4-[2-(6-methoxy-3-pyridyl)-1-(2,3-xylyl)ethyl]imidazole]

Row | Structure (SMILES) | EC50
41 | Cc1cccc([C@@H](Cc2cc[nH]n2)c2c[nH]cn2)c1C [Compound 234, 3-[(R)-2-(4-imidazolyl)-2-(2,3-xylyl)ethyl]pyrazole] | > 500 nM
42 | Cc1cccc([C@H](Cc2cc[nH]n2)c2c[nH]cn2)c1C [Compound 235, 3-[(S)-2-(4-imidazolyl)-2-(2,3-xylyl)ethyl]pyrazole] | < 10 nM
43 | Cc1cccc(C(Cc2cc[nH]n2)c2c[nH]cn2)c1F (centres unmarked) [Compound 236, 3-[2-(2-fluoro-3-tolyl)-2-(4-imidazolyl)ethyl]pyrazole] | 50 to 500 nM

Same assay, conditions: read-out: Beta-Arrestin - Human Alpha2B EC50

Row | Structure (SMILES) | EC50
44 | Cc1cccc([C@@H](Cc2ccncc2)c2c[nH]cn2)c1C [Compound 320, 4-[(R)-2-(4-pyridyl)-1-(2,3-xylyl)ethyl]imidazole] | > 500 nM

— patent publication US20260042769A1, “TRIARYL AGONISTS OF ALPHA-2 ADRENERGIC RECEPTORS” (ALCEPTOR THERAPEUTICS, INC., priority 2023, published 2026)
